# Laboratory results published in the supplement of paper PMC10307832.
# Assays:
# Test in all cases: relative viability (nuclei count vs DMSO), 5 days (fraction); higher = more cells survive
# [1] = compound: CN(C)C/C=C/C(=O)Nc1cc2c(Nc3ccc(F)c(Cl)c3)ncnc2cc1O[C@H]1CCOC1 [Afatinib] + CCNC(=O)c1noc(-c2cc(C(C)C)c(O)cc2O)c1-c1ccc(CN2CCOCC2)cc1 [Luminespib] (partner 0.01 µM)
# How it was run: (§1)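 Lung cancer cell lines were pin-tool dosed in 1536-well plates on the day after seeding, with either a lone drug or a fixed anchor-drug dose plus five library-drug doses (not always all listed) in √10 steps. Nuclei were counted on 4× images after 5 days. Relative viability is the ratio of treated-well to vehicle-well nuclei counts, with each value a median of duplicate plates.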
# [2] = compound: CN(C)C/C=C/C(=O)Nc1cc2c(Nc3ccc(F)c(Cl)c3)ncnc2cc1O[C@H]1CCOC1 [Afatinib] + Cc1cc(Nc2cc(N3CCN(C)CC3)nc(Sc3ccc(NC(=O)C4CC4)cc3)n2)n[nH]1 [Tozasertib] (partner 0.1 µM)
# How it was run: as §1
# [3] = compound: CN(C)C/C=C/C(=O)Nc1cc2c(Nc3ccc(F)c(Cl)c3)ncnc2cc1O[C@H]1CCOC1 [Afatinib] + Cc1nc(NC(=O)N2CCC[C@H]2C(N)=O)sc1-c1ccnc(C(C)(C)C(F)(F)F)c1 [Alpelisib] (partner 2 µM)
# How it was run: as §1
# [4] = compound: CN(C)C/C=C/C(=O)Nc1cc2c(Nc3ccc(F)c(Cl)c3)ncnc2cc1O[C@H]1CCOC1 [Afatinib] + Cc1nc(Nc2ncc(C(=O)Nc3c(C)cccc3Cl)s2)cc(N2CCN(CCO)CC2)n1 [Dasatinib] (partner 0.075 µM)
# How it was run: as §1
Cell Line,relative viability ([1]; first compound 0.005 µM),relative viability ([1]; first compound 0.01581 µM),relative viability ([1]; first compound 0.05 µM),relative viability ([1]; first compound 0.1581 µM),relative viability ([1]; first compound 0.5 µM),relative viability ([2]; first compound 0.005 µM),relative viability ([2]; first compound 0.01581 µM),relative viability ([2]; first compound 0.05 µM),relative viability ([2]; first compound 0.1581 µM),relative viability ([2]; first compound 0.5 µM),relative viability ([3]; first compound 0.005 µM),relative viability ([3]; first compound 0.01581 µM),relative viability ([3]; first compound 0.05 µM),relative viability ([3]; first compound 0.1581 µM),relative viability ([3]; first compound 0.5 µM),relative viability ([4]; first compound 0.005 µM),relative viability ([4]; first compound 0.01581 µM),relative viability ([4]; first compound 0.05 µM),relative viability ([4]; first compound 0.1581 µM),relative viability ([4]; first compound 0.5 µM)
201T,1.01,1.02,1.03,0.975,1.03,1.01,0.915,0.948,0.806,0.827,1,0.961,0.922,0.918,0.935,0.589,0.517,0.581,0.56,0.544
A-427,1.1,0.926,1.04,0.968,0.915,0.204,0.193,0.192,0.173,0.225,1.04,1.11,1.18,0.973,1.09,0.661,0.741,0.631,0.669,0.72
ABC-1,0.938,0.717,0.538,0.2,0.857,0.172,0.123,0.177,0.168,0.165,1.26,0.856,0.947,0.931,0.988,0.559,0.58,0.621,0.472,0.516
BEN,0.366,0.24,0.261,0.549,0.288,0.461,0.512,0.57,0.475,0.494,1.25,1.07,1.18,1.06,1.1,0.337,0.283,0.323,0.336,0.313
CAL-12T,0.865,0.595,0.361,0.279,0.27,0.315,0.339,0.311,0.168,0.189,1.18,0.973,0.929,–,0.584,0.261,0.236,0.193,0.189,0.194
COR-L23,0.804,0.603,0.773,0.644,0.68,0.216,0.202,0.216,0.167,0.166,0.922,0.728,0.935,0.685,0.752,0.575,0.484,0.536,0.426,0.535
COR-L 105,0.678,0.476,0.445,0.307,0.272,0.333,0.255,0.258,0.165,0.206,0.934,0.45,0.353,0.255,0.241,0.206,0.119,0.142,0.137,0.148
Calu-6,–,–,–,–,–,–,–,–,–,–,1.05,0.922,1.03,1.01,0.88,–,–,–,–,–
ChaGo-K-1,0.688,0.652,0.566,0.499,0.579,0.231,0.239,0.225,0.215,0.212,–,–,–,–,–,0.631,0.52,0.535,0.65,0.541
EKVX,0.714,0.858,0.58,0.191,0.298,0.379,0.423,0.31,0.132,0.169,0.713,0.704,0.46,0.187,0.156,0.334,0.429,0.339,0.319,0.231
EMC-BAC-2,1.23,1.13,1.13,1.04,1.16,0.315,0.299,0.342,0.326,0.309,0.734,0.635,0.635,0.603,0.634,0.314,0.302,0.33,0.315,0.296
EPLC-272H,0.239,0.482,0.228,0.267,0.172,0.205,0.427,0.133,0.164,0.253,0.775,0.818,0.737,0.691,0.731,0.326,0.341,0.262,0.253,0.244
H3255,0.461,0.234,0.303,0.336,0.269,0.315,0.204,0.222,0.168,0.195,0.209,0.135,0.168,0.123,0.123,0.202,0.195,0.264,0.326,0.242
HARA,0.719,0.327,0.425,0.334,0.458,0.0895,0.0918,0.0646,0.0722,0.062,0.45,0.652,0.397,0.313,0.397,0.179,0.182,0.217,0.178,0.209
HCC-15,0.352,0.56,0.313,0.48,0.34,0.49,0.488,0.422,0.299,0.406,0.855,0.816,0.902,0.855,0.889,0.609,0.646,0.617,0.609,0.642
HCC-44,0.957,1.11,1.13,1.17,1.26,1.18,1.02,1,0.946,0.897,0.803,0.854,0.727,0.728,0.872,–,–,–,–,–
HCC-78,–,–,–,–,–,0.474,0.405,0.403,0.312,0.47,0.373,0.345,0.273,0.228,0.217,0.445,0.341,0.366,0.29,0.331
HCC-366,–,–,–,–,–,0.122,0.143,0.0823,0.0878,0.069,0.375,0.423,0.41,0.308,0.485,0.697,0.666,0.605,0.62,0.723
HCC-827,0.228,0.133,0.227,0.169,0.148,0.0972,0.11,0.112,0.131,0.112,0.172,0.157,0.183,0.17,0.184,0.14,0.135,0.16,0.175,0.15

Cell Line,relative viability ([1]; first compound 0.005 µM),relative viability ([1]; first compound 0.01581 µM),relative viability ([1]; first compound 0.05 µM),relative viability ([1]; first compound 0.1581 µM),relative viability ([1]; first compound 0.5 µM),relative viability ([2]; first compound 0.005 µM),relative viability ([2]; first compound 0.01581 µM),relative viability ([2]; first compound 0.05 µM),relative viability ([2]; first compound 0.1581 µM),relative viability ([2]; first compound 0.5 µM),relative viability ([3]; first compound 0.005 µM),relative viability ([3]; first compound 0.01581 µM),relative viability ([3]; first compound 0.05 µM),relative viability ([3]; first compound 0.1581 µM),relative viability ([3]; first compound 0.5 µM),relative viability ([4]; first compound 0.005 µM),relative viability ([4]; first compound 0.01581 µM),relative viability ([4]; first compound 0.05 µM),relative viability ([4]; first compound 0.1581 µM),relative viability ([4]; first compound 0.5 µM)
HOP-62,1.04,0.977,0.968,0.994,0.89,0.43,0.347,0.385,0.37,0.435,0.977,0.599,1.14,1.08,0.689,0.701,0.639,0.731,0.648,0.693
IA-LM,–,–,–,–,–,–,–,–,–,–,0.653,0.658,0.691,0.693,0.797,–,–,–,–,–
LC-2-ad,1.01,1.05,1.13,1.08,1.05,0.507,0.48,0.439,0.483,0.431,0.892,0.441,0.819,0.687,0.784,0.735,0.389,0.527,0.509,0.477
LCLC-97TM1,0.785,0.862,0.708,0.722,0.68,0.248,0.247,0.159,0.268,0.179,0.175,0.286,0.313,0.184,0.211,0.926,0.766,0.812,0.709,0.842
LCLC-103H,0.779,1.04,0.968,0.784,0.917,0.425,0.508,0.441,0.516,0.49,0.806,1.09,0.997,0.939,1,0.424,0.454,0.48,0.459,0.483
LK-2,0.191,0.185,0.185,0.188,0.192,0.161,0.173,0.2,0.182,0.166,1.34,–,1.04,1.12,1.12,0.26,0.359,0.28,0.216,0.269
LOU-NH91,0.319,0.295,0.325,0.326,0.311,0.475,0.444,0.527,0.51,0.479,0.494,0.492,0.537,0.501,0.523,0.399,0.421,0.486,0.424,0.4
LU99A,0.198,0.294,0.25,0.343,0.305,0.275,0.273,0.256,0.254,0.231,0.557,0.468,0.438,0.452,0.489,0.741,0.591,0.594,0.569,0.493
LXF-289,0.748,0.604,0.719,0.656,0.564,0.146,0.146,0.2,0.152,0.214,0.97,1.01,1.02,0.919,0.975,0.238,0.27,0.253,0.208,0.228
NCI-H23,0.226,–,0.2,0.209,0.216,0.356,0.366,0.321,0.391,0.315,0.771,0.735,0.725,0.636,0.561,0.682,0.69,0.754,0.884,0.83
NCI-H322M,0.705,0.566,0.443,0.496,0.405,0.386,0.329,0.307,0.304,0.313,0.666,0.519,0.495,0.384,0.335,0.246,0.229,0.231,0.233,0.248
NCI-H522,1.25,1.19,0.978,0.923,1,0.512,0.535,0.521,0.449,0.401,–,–,–,–,–,0.877,0.992,0.712,0.733,0.692
NCI-H1563,0.489,0.558,0.552,0.501,0.515,–,–,–,–,–,0.953,0.953,0.87,0.83,1.03,0.476,0.435,0.437,0.501,0.451
NCI-H1648,–,–,–,–,–,0.734,0.624,0.592,0.241,0.311,–,–,–,–,–,–,–,–,–,–
NCI-H1650,0.181,–,0.188,0.164,0.224,0.409,–,0.408,0.313,0.343,–,–,–,–,–,0.295,–,0.307,0.264,0.28
NCI-H1703,–,–,–,–,–,–,–,–,–,–,0.313,0.322,0.286,0.278,0.314,–,–,–,–,–
NCI-H1792,0.389,0.695,0.464,0.376,0.41,–,–,–,–,–,0.64,0.732,0.722,0.674,0.668,0.657,0.84,0.748,0.657,0.911
NCI-H2342,0.713,0.648,0.699,0.627,0.583,0.464,0.545,0.472,0.421,0.393,–,–,–,–,–,0.315,0.281,0.295,0.305,0.297
SW 900,0.182,0.198,–,0.187,0.173,0.576,0.646,0.61,0.438,0.444,–,–,–,–,–,0.622,0.323,0.683,0.547,0.435
